In patent publication US20240327397A1, “Pesticidally Active Fused Bicyclic Heteroaromatic Compounds” (SYNGENTA CROP PROTECTION AG, priority 2021, published 2024):

Columns and labels:
Type in all cases: in vivo
[1] = test system: Spodoptera littoralis (Eqyptian Cotton Leaf Worm); test: Example B4: Spodoptera littoralis, sprayed cotton leaf discs, L1 larvae; conditions: foliar, 72 h, application rate 200 ppm, 3 days after infestation, versus untreated, read-out: control (at least one of mortality, anti-feedant effect, growth inhibition)
Experimental: Example B4: Spodoptera littoralis (Eqyptian Cotton Leaf Worm)
Cotton leaf discs were placed onto agar in 24-well microtiter plates and sprayed with aqueous test solutions prepared from 10'000 ppm DMSO stock solutions. After drying the leaf discs were infested with five L1 larvae. The samples were assessed for mortality, anti-feeding effect, and growth inhibition in comparison to untreated samples 3 days after infestation. Control of Spodoptera littoralis by a test sample is given when at least one of the categories mortality, anti-feedant effect, and growth inhibition is higher than the untreated sample.

[2] = test system: Chilo suppressalis (Striped Rice Stemborer); test: Example B1: Chilo suppressalis, artificial diet in 24-well plates, L2 larvae; conditions: 144 h, application rate 200 ppm, 6 days after infestation, versus untreated, read-out: control (at least one of mortality, anti-feedant effect, growth inhibition)
Experimental: Example B1: Chilo suppressalis (Striped Rice Stemborer)
24-well microtiter plates with artificial diet were treated with aqueous test solutions prepared from 10'000 ppm DMSO stock solutions by pipetting. After drying, the plates were infested with L2 larvae (6-8 per well). The samples were assessed for mortality, anti-feeding effect, and growth inhibition in comparison to untreated samples 6 days after infestation. Control of Chilo suppressalis by a test sample is given when at least one of the categories mortality, anti-feedant effect, and growth inhibition is higher than the untreated sample.

[3] = test system: Plutella xylostella (Diamond Back Moth); test: Example B3: Plutella xylostella, artificial diet in 24-well plates, eggs; conditions: 192 h, application rate 200 ppm, 8 days after infestation, versus untreated, read-out: effect in at least one of the two categories (mortality or growth inhibition)
Experimental: Example B3: Plutella xylostella (Diamond Back Moth)
24-well microtiter plates with artificial diet were treated with aqueous test solutions prepared from 10'000 ppm DMSO stock solutions by pipetting. After drying, Plutella eggs were pipetted through a plastic stencil onto a gel blotting paper and the plate was closed with it. The samples were assessed for mortality and growth inhibition in comparison to untreated samples 8 days after infestation.

[4] = test system: Diabrotica Balteata (Corn Root Worm); test: Example B2: Diabrotica balteata, sprayed maize sprouts on agar, L2 larvae; conditions: 96 h, application rate 200 ppm, 4 days after infestation, versus untreated, read-out: effect in at least one of the two categories (mortality or growth inhibition)
Experimental: Example B2: Diabrotica Balteata (Corn Root Worm)
Maize sprouts placed onto an agar layer in 24-well microtiter plates were treated with aqueous test solutions prepared from 10'000 ppm DMSO stock solutions by spraying. After drying, the plates were infested with L2 larvae (6 to 10 per well). The samples were assessed for mortality and growth inhibition in comparison to untreated samples 4 days after infestation.

[5] = test system: Frankliniella occidentalis (Western Flower Thrips); test: Example B5: Frankliniella occidentalis, feeding/contact activity, sunflower leaf discs; conditions: foliar, 168 h, application rate 200 ppm, population of mixed ages, 7 days after infestation
Experimental: Example B5: Frankliniella occidentalis (Western Flower Thrips). Feedinq/Contact Activity
Sunflower leaf discs were placed on agar in 24-well microtiter plates and sprayed with aqueous test solutions prepared from 10'000 DMSO stock solutions. After drying the leaf discs were infested with a Frankliniella population of mixed ages. The samples were assessed for mortality 7 days after infestation.

[6] = test system: Myzus persicae (Green Peach Aphid); test: Example B7: Myzus persicae, intrinsic activity, sucrose solution under Parafilm; conditions: 120 h, test rate 12 ppm, 5 days after infestation
Source text: Example B7: Myzus persicae (Green Peach Aphid). Intrinsic Activity
Test compounds prepared from 10'000 ppm DMSO stock solutions were applied by pipette into 24-well microtiter plates and mixed with sucrose solution. The plates were closed with a stretched Parafilm. A plastic stencil with 24 holes was placed onto the plate and infested pea seedlings were placed directly on the Parafilm. The infested plate was closed with a gel blotting paper and another plastic stencil and then turned upside down. The samples were assessed for mortality 5 days after infestation.

C[C@H](NC1=N[S@@](C)(=O)=Nc2c(Br)cc(Br)cc21)c1ncnn1-c1ccc(C#N)cn1 (single isomer, unassigned) [P6]
≥ 80%: percent control (mortality, anti-feedant effect or growth inhibition) at 200 ppm [1] | percent control (mortality, anti-feedant effect or growth inhibition) at 200 ppm [2] | percent effect (mortality or growth inhibition) at 200 ppm [3] | percent effect (mortality or growth inhibition) at 200 ppm [4]

C[C@H](NC1=N[S@](C)(=O)=Nc2c(Br)cc(Br)cc21)c1ncnn1-c1ccc(C#N)cn1 (single isomer, unassigned) [P7]
≥ 80%: percent control (mortality, anti-feedant effect or growth inhibition) at 200 ppm [1] | percent control (mortality, anti-feedant effect or growth inhibition) at 200 ppm [2] | percent effect (mortality or growth inhibition) at 200 ppm [3] | percent effect (mortality or growth inhibition) at 200 ppm [4]

C[C@H](NC1=N[S@](C)(=O)=Nc2ccc(Br)cc21)c1ncnn1-c1ccc(C#N)cn1 (single isomer, unassigned) [P8]
≥ 80%: percent control (mortality, anti-feedant effect or growth inhibition) at 200 ppm [1] | percent control (mortality, anti-feedant effect or growth inhibition) at 200 ppm [2] | percent effect (mortality or growth inhibition) at 200 ppm [3]

C[C@H](NC1=N[S@@](C)(=O)=Nc2ccc(Br)cc21)c1ncnn1-c1ccc(C#N)cn1 (single isomer, unassigned) [P9]
≥ 80%: percent control (mortality, anti-feedant effect or growth inhibition) at 200 ppm [1] | percent control (mortality, anti-feedant effect or growth inhibition) at 200 ppm [2] | percent effect (mortality or growth inhibition) at 200 ppm [3] | percent effect (mortality or growth inhibition) at 200 ppm [4]

CC(NC1=CS(C)(=O)=Nc2c1cc(C(F)(F)F)cc2C(F)(F)F)c1ncnn1-c1ncccn1 (stereo not shown) [P2, 3-methyl-3-oxo-N-[1-(2-pyrimidin-2-yl-1,2,4-triazol-3-yl)ethyl]-8,10-bis(trifluoromethyl)-3λ^6-thia-2-azabicyclo[4.4.0]deca-1(6),2,4,7,9-pentaen-5-amine]
≥ 80%: percent control (mortality, anti-feedant effect or growth inhibition) at 200 ppm [1] | percent control (mortality, anti-feedant effect or growth inhibition) at 200 ppm [2] | percent effect (mortality or growth inhibition) at 200 ppm [3] | percent effect (mortality or growth inhibition) at 200 ppm [4]

CC(NC1=CS(C)(=O)=Nc2c1cc(C(F)(F)F)cc2C(F)(F)F)c1ncnn1-c1ccc(C#N)cn1 (stereo not shown) [P3]
≥ 80%: percent control (mortality, anti-feedant effect or growth inhibition) at 200 ppm [1] | percent control (mortality, anti-feedant effect or growth inhibition) at 200 ppm [2]

CC(NC1=NS(C)(=O)=Nc2c(Br)cc(Br)cc21)c1ncnn1-c1ccc(C#N)cn1 (stereo not shown) [P4, 6-[5-[1-[(8,10-dibromo-3-methyl-3-oxo-3λ^6-thia-2,4-diazabicyclo[4.4.0]deca-1(10),2,4,6,8-pentaen-5-yl)amino]ethyl]-1,2,4-triazol-1-yl]pyridine-3-carbonitrile]
≥ 80%: percent control (mortality, anti-feedant effect or growth inhibition) at 200 ppm [1] | percent control (mortality, anti-feedant effect or growth inhibition) at 200 ppm [2] | percent effect (mortality or growth inhibition) at 200 ppm [3] | percent effect (mortality or growth inhibition) at 200 ppm [4]

C[C@H](NC1=NS(C)(=O)=Nc2c(Br)cc(Br)cc21)c1ncnn1-c1ccc(C#N)cn1 (stereo partly drawn) [P5, 6-[5-[(1S)-1-[(8,10-dibromo-3-methyl-3-oxo-3λ^6-thia-2,4-diazabicyclo[4.4.0]deca-1(10),2,4,6,8-pentaen-5-yl)amino]ethyl]-1,2,4-triazol-1-yl]pyridine-3-carbonitrile]
≥ 80%: percent control (mortality, anti-feedant effect or growth inhibition) at 200 ppm [1] | percent control (mortality, anti-feedant effect or growth inhibition) at 200 ppm [2] | percent effect (mortality or growth inhibition) at 200 ppm [3] | percent effect (mortality or growth inhibition) at 200 ppm [4]

C[C@H](NC1=NS(C)(=O)=Nc2c(Br)cc(Br)cc21)c1ncnn1-c1cnccn1 (stereo partly drawn) [P11, 8,10-dibromo-3-methyl-3-oxo-N-[(1S)-1-(2-pyrazin-2-yl-1,2,4-triazol-3-yl)ethyl]-3λ^6-thia-2,4-diazabicyclo[4.4.0]deca-1(6),2,4,7,9-pentaen-5-amine]
≥ 80%: percent control (mortality, anti-feedant effect or growth inhibition) at 200 ppm [1] | percent control (mortality, anti-feedant effect or growth inhibition) at 200 ppm [2] | percent effect (mortality or growth inhibition) at 200 ppm [3] | percent effect (mortality or growth inhibition) at 200 ppm [4]

C[C@H](NC1=NS(C)(=O)=Nc2c(Cl)cc(C(F)(F)F)cc21)c1nccnc1-c1cnccn1 (stereo partly drawn) [P12, 10-chloro-3-methyl-3-oxo-N-[(1S)-1-(3-pyrazin-2-ylpyrazin-2-yl)ethyl]-8-(trifluoromethyl)-3λ^6-thia-2,4-diazabicyclo[4.4.0]deca-1(6),2,4,7,9-pentaen-5-amine]
≥ 80%: percent control (mortality, anti-feedant effect or growth inhibition) at 200 ppm [1] | percent effect (mortality or growth inhibition) at 200 ppm [3] | percent effect (mortality or growth inhibition) at 200 ppm [4]

C[C@H](NC1=NS(C)(=O)=Nc2c(Cl)cc(C(F)(F)F)cc21)c1ncnn1-c1ncccn1 (stereo partly drawn) [P13, 10-chloro-3-methyl-3-oxo-N-[(1S)-1-(2-pyrimidin-2-yl-1,2,4-triazol-3-yl)ethyl]-8-(trifluoromethyl)-3λ^6-thia-2,4-diazabicyclo[4.4.0]deca-1(6),2,4,7,9-pentaen-5-amine]
≥ 80%: mortality at 200 ppm [5] | percent control (mortality, anti-feedant effect or growth inhibition) at 200 ppm [1] | mortality at 12 ppm [6] | percent effect (mortality or growth inhibition) at 200 ppm [3] | percent effect (mortality or growth inhibition) at 200 ppm [4]

C[C@H](NC1=NS(C)(=O)=Nc2c(Cl)cc(C(F)(F)F)cc21)c1ncnn1-c1ccc(C#N)cn1 (stereo partly shown) [P15]
≥ 80%: percent control (mortality, anti-feedant effect or growth inhibition) at 200 ppm [1] | percent effect (mortality or growth inhibition) at 200 ppm [3] | percent effect (mortality or growth inhibition) at 200 ppm [4]

C[C@H](NC1=NS(C)(=O)=Nc2c1cc(Cl)cc2C(F)(F)F)c1ncnn1-c1ccc(C#N)cn1 (stereo partly shown) [P16]
≥ 80%: percent control (mortality, anti-feedant effect or growth inhibition) at 200 ppm [1] | percent control (mortality, anti-feedant effect or growth inhibition) at 200 ppm [2] | mortality at 12 ppm [6] | percent effect (mortality or growth inhibition) at 200 ppm [3] | percent effect (mortality or growth inhibition) at 200 ppm [4]

C[C@H](NC1=NS(C)(=O)=Nc2c1cc(Cl)cc2C(F)(F)F)c1ncnn1-c1cnccn1 (stereo partly drawn) [P17, 8-chloro-3-methyl-3-oxo-N-[(1S)-1-(2-pyrazin-2-yl-1,2,4-triazol-3-yl)ethyl]-10-(trifluoromethyl)-3λ^6-thia-2,4-diazabicyclo[4.4.0]deca-1(6),2,4,7,9-pentaen-5-amine]
≥ 80%: percent control (mortality, anti-feedant effect or growth inhibition) at 200 ppm [1] | percent effect (mortality or growth inhibition) at 200 ppm [3] | percent effect (mortality or growth inhibition) at 200 ppm [4]

C[C@H](NC1=NS(C)(=O)=Nc2c1cc(Cl)cc2C(F)(F)F)c1ncnn1-c1ncccn1 (stereo partly drawn) [P18, 8-chloro-3-methyl-3-oxo-N-[(1S)-1-(2-pyrimidin-2-yl-1,2,4-triazol-3-yl)ethyl]-10-(trifluoromethyl)-3λ^6-thia-2,4-diazabicyclo[4.4.0]deca-1(6),2,4,7,9-pentaen-5-amine]
≥ 80%: percent control (mortality, anti-feedant effect or growth inhibition) at 200 ppm [1] | percent control (mortality, anti-feedant effect or growth inhibition) at 200 ppm [2] | mortality at 12 ppm [6] | percent effect (mortality or growth inhibition) at 200 ppm [3] | percent effect (mortality or growth inhibition) at 200 ppm [4]

C[C@H](NC1=NS(C)(=O)=Nc2c1cc(Cl)cc2C(F)(F)F)c1nccnc1-c1cnccn1 (stereo partly drawn) [P19, 8-chloro-3-methyl-3-oxo-N-[(1S)-1-(3-pyrazin-2-ylpyrazin-2-yl)ethyl]-10-(trifluoromethyl)-3λ^6-thia-2,4-diazabicyclo[4.4.0]deca-1(6),2,4,7,9-pentaen-5-amine]
≥ 80%: percent control (mortality, anti-feedant effect or growth inhibition) at 200 ppm [1] | percent control (mortality, anti-feedant effect or growth inhibition) at 200 ppm [2] | percent effect (mortality or growth inhibition) at 200 ppm [3] | percent effect (mortality or growth inhibition) at 200 ppm [4]

C[C@@H](c1ncnn1-c1cnccn1)N(C)C1=NS(C)(=O)=Nc2c1cc(Cl)cc2C(F)(F)F (stereo partly drawn) [P20, 8-chloro-N,3-dimethyl-3-oxo-N-[(1S)-1-(2-pyrazin-2-yl-1,2,4-triazol-3-yl)ethyl]-10-(trifluoromethyl)-3λ^6-thia-2,4-diazabicyclo[4.4.0]deca-1(6),2,4,7,9-pentaen-5-amine]
≥ 80%: percent control (mortality, anti-feedant effect or growth inhibition) at 200 ppm [1] | percent effect (mortality or growth inhibition) at 200 ppm [3] | percent effect (mortality or growth inhibition) at 200 ppm [4]
